From patent US12297194B2, “N2-phenylpyrimidine-2,4-diamine compounds, and preparation methods and methods of use thereof” (BRIDGE BIOTHERAPEUTICS, INC., priority 2021, dated 2025) come the findings set out here.

What all share (assay type): cell-based, murine
Test [1] concerns the target Ba/F3 EGFR L858R/T790M/C797S mutants (Homo sapiens, UniProt P00533, T790M/C797S/L858R, cells depend on it). Put plainly: CellTiter-Glo cell viability, Ba/F3 EGFR L858R/T790M/C797S cells. As to conditions: 72 hours, read-out: Ba/F3 EGFR mutant cell (IC50, nM) L/T/C. Here is the method:
(§1) In order to evaluate an inhibitory ability on wild-type Ba/F3 EGFR and Ba/F3 EGFR mutations in Ba/F3 cell lines by the compounds of Formula 1, the experiment was carried out as described below.
(§2) The measurement of activities on Ba/F3 cells harboring wild-type EGFR and EGFR mutants by the compounds of the present invention were determined utilizing the CELLTITER-GLO™ system from Promega, as follows. The CELLTITER-GLO™ assay is a method for measuring the ATP present in cells to determine the cell viability. Ba/F3 EGFR wild-type and Ba/F3 EGFR L858R/C797S (L/C), Ba/F3 EGFR L858R/T790M/C797S (L/T/C), Ba/F3 EGFR Del19/T790M (D/T), Ba/F3 EGFR Del19/C797S (D/C), Ba/F3 EGFR Del19/T790M/C797S (D/T/C) mutant cell lines were maintained in RPMI1640, containing […], 1% penicillin-streptomycin, […] puromycin. Cells were grown in a humidified incubator at 37° C. with […].
(§3) The analysis of an EGFR inhibitory activity by the compounds was carried out in accordance with the analysis reaction recipe below.
(§4) 2500 cells/90 μL were seeded in 96 well cell culture plate, and after 24 hours, treated with the compounds represented by Formula 1 in concentrations of 0, 0.3, 0.9, 2.7, 8.2, 24.7, 74.1, 222.2, 666.7, 2000 (nM). After the reaction of 72 hours, the plate was incubated for 30 minutes at ambient temperature, and then, was further treated with 100 μL of the CELLTITER-GLO™ reagent and was shaken for 10 minutes at ambient temperature. Finally, measurement of the luminescence values were obtained using the SPECTRAMAX™ iD3 (Molecular Devices), and the IC50 values of the compound were analyzed using the GraphPad Prism program (version 9.0.2, GraphPad Software, Inc.).

In the next test the target is Ba/F3 EGFR Wild-type (Homo sapiens, UniProt P00533). Put plainly: CellTiter-Glo cell viability, Ba/F3 EGFR wild-type cells. Conditions: 72 hours, read-out: Ba/F3 EGFR mutant cell (IC50, nM) WT. Here is the method: as §1, §2, §3, §4
Sequence of Ba/F3 EGFR Wild-type (P00533 whole entry, change not shown): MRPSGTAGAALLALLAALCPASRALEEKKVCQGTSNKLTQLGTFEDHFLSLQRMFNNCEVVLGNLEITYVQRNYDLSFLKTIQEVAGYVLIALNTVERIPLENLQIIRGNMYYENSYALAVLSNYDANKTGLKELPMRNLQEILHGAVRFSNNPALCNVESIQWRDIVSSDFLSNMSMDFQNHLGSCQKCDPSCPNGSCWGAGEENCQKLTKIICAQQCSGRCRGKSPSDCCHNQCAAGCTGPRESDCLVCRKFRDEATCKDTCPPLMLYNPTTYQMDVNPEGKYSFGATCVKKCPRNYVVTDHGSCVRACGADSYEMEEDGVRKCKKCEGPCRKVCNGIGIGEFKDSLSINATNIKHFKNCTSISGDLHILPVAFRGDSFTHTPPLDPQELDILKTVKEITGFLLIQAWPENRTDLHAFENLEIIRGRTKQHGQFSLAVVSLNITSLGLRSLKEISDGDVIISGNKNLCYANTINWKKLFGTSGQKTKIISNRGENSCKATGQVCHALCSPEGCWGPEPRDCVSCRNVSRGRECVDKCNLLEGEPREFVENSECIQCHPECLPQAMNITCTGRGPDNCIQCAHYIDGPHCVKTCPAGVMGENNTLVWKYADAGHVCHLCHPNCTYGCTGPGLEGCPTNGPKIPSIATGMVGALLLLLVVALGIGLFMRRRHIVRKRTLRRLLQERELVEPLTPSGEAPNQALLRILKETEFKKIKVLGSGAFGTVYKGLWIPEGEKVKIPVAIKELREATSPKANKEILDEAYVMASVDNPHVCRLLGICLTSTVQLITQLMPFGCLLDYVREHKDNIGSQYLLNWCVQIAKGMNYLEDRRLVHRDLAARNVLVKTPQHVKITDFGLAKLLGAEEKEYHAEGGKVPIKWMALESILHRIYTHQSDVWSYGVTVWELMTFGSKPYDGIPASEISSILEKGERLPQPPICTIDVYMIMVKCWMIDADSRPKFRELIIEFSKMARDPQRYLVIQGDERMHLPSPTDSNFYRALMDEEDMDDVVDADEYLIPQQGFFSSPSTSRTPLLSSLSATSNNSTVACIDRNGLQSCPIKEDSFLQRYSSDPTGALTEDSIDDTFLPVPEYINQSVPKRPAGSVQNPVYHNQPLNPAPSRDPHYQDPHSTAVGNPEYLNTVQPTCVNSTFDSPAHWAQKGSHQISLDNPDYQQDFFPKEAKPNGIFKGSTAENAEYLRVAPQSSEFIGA
(In general: ATP-based viability assays read luminescence as a measure of living cells.)

The target of test [2] is Ba/F3 EGFR Del19/T790M/C797S mutants (Homo sapiens, UniProt P00533, T790M/C797S, cells depend on it, form not given). Put plainly: CellTiter-Glo cell viability, Ba/F3 EGFR Del19/T790M/C797S cells. As to conditions: 72 hours, read-out: Ba/F3 EGFR mutant cell (IC50, nM) D/T/C. Here is the method: as §1, §2, §3, §4
Sequence of Ba/F3 EGFR Del19/T790M/C797S mutants (P00533 with tags, fused parts or gaps DEL746-750/T790M/C797S, form open): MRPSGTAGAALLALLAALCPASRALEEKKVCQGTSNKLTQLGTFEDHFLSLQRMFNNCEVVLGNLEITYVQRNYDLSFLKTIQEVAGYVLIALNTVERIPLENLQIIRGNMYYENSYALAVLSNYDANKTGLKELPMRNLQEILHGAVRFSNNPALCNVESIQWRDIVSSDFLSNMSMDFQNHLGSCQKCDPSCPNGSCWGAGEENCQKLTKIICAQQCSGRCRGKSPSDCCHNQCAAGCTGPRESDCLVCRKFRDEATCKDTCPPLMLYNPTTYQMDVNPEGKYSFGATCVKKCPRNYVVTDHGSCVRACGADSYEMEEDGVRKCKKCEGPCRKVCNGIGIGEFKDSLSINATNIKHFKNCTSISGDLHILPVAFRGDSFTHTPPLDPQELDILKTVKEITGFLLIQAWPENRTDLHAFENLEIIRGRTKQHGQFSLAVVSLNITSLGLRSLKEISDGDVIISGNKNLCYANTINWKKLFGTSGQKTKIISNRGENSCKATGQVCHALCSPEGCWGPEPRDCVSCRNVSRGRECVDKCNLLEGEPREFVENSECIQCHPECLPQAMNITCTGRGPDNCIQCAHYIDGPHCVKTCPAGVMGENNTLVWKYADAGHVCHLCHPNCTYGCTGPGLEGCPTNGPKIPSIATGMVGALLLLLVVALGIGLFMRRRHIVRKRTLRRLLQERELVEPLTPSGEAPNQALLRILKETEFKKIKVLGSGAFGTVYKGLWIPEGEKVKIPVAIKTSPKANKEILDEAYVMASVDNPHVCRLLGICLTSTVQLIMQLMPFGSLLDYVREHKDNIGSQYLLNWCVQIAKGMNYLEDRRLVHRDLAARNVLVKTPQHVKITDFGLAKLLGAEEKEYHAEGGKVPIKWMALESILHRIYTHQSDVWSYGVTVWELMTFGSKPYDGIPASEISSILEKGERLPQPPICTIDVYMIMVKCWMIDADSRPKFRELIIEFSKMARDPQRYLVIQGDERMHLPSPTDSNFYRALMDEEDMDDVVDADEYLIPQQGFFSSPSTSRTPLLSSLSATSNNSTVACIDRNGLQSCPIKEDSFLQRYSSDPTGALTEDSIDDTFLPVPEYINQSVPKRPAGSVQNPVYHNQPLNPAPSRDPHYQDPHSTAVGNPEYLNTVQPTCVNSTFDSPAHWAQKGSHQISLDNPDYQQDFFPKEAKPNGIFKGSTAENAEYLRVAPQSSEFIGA
Test [3] deals with Ba/F3 EGFR Del19/C797S mutants (Homo sapiens, UniProt P00533, C797S, cells depend on it, form not given). Put plainly: CellTiter-Glo cell viability, Ba/F3 EGFR Del19/C797S cells. As to conditions: 72 hours, read-out: Ba/F3 EGFR mutant cell (IC50, nM) D/C. Here is the method: as §1, §2, §3, §4
Sequence of Ba/F3 EGFR Del19/C797S mutants (P00533 with tags, fused parts or gaps DEL746-750/C797S, form open): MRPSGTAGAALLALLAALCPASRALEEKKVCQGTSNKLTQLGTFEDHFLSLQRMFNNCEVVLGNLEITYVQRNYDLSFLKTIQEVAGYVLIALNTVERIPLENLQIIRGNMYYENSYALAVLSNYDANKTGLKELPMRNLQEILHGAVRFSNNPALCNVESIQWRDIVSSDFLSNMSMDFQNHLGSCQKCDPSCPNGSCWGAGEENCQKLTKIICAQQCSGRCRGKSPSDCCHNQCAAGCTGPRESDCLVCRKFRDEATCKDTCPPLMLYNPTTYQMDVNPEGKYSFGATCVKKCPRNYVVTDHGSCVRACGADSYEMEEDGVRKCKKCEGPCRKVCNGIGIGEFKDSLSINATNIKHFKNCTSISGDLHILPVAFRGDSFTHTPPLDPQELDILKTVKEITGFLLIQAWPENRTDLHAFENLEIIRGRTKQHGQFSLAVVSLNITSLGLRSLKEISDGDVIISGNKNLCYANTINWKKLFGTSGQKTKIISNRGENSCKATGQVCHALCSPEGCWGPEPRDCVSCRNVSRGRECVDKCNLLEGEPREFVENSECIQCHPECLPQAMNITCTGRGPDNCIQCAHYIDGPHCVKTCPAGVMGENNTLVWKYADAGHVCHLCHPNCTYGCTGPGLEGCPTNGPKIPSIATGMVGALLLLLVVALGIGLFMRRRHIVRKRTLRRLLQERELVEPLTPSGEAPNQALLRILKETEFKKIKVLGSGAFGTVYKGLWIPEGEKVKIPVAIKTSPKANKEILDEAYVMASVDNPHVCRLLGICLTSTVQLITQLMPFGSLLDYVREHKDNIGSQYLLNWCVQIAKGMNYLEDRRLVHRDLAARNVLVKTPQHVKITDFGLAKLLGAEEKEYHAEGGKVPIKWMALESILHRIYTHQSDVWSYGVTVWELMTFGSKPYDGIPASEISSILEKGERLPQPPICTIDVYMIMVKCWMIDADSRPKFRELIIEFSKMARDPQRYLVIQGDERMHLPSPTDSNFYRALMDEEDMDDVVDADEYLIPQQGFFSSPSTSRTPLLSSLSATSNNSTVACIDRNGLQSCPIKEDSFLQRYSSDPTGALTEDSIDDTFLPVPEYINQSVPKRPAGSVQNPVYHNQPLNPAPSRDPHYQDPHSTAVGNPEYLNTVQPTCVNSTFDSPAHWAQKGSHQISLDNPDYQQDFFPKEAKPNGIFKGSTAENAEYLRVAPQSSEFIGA
In test [4] the target is Ba/F3 EGFR L858R/C797S mutants (Homo sapiens, UniProt P00533, C797S/L858R, cells depend on it). As to the kind of experiment: CellTiter-Glo cell viability, Ba/F3 EGFR L858R/C797S cells. Conditions: 72 hours, read-out: Ba/F3 EGFR mutant cell (IC50, nM) L/C. Here is the method: as §1, §2, §3, §4

Sequence of Ba/F3 EGFR L858R/T790M/C797S mutants (P00533 whole entry T790M/C797S/L858R): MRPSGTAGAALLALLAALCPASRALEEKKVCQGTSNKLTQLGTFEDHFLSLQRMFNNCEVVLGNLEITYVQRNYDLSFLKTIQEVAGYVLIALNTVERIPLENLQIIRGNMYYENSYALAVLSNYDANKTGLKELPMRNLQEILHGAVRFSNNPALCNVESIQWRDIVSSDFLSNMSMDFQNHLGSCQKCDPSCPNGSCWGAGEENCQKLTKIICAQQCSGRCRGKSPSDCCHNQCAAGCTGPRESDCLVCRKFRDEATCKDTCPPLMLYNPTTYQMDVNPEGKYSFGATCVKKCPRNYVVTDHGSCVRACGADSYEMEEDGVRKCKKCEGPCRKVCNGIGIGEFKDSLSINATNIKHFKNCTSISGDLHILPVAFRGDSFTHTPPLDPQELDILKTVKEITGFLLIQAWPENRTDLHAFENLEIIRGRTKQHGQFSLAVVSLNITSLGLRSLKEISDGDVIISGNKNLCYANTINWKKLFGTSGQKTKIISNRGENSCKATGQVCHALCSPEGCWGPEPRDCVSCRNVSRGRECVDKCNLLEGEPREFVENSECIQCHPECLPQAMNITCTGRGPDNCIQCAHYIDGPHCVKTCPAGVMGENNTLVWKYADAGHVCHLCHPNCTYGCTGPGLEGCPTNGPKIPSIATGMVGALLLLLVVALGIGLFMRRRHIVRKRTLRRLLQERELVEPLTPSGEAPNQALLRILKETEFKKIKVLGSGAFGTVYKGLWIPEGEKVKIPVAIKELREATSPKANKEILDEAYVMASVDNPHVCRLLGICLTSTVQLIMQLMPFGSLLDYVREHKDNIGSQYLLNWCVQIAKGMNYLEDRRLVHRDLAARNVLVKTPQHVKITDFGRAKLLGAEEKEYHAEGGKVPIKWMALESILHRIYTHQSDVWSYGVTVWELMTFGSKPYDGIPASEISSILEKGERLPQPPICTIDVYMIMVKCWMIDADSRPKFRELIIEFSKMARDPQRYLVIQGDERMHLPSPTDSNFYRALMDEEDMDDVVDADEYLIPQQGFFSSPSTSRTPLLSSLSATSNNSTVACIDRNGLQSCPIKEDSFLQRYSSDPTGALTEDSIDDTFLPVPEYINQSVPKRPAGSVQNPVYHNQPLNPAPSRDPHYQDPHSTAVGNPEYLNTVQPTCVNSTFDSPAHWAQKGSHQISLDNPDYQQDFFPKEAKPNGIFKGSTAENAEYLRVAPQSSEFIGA

As for `CCc1cc(Nc2ncc(Cl)c(Nc3ccc4nccnc4c3NS(C)(=O)=O)n2)c(OC)cc1N1CCC(N(C)C)CC1` [Example B5, N-(6-((5-chloro-2-((4-(4-(dimethylamino)piperidin-1-yl)-5-ethyl-2-methoxyphenyl)amino)pyrimidin-4-yl)amino)quinoxalin-5-yl)methanesulfonamide], the GI50 in test [1] amounted to 36 nM; at Ba/F3 EGFR Wild-type it was 1860 nM; in test [2], 14 nM; in test [3] it was 30 nM; in test [4] it was 223 nM.
In the same order, the values of `COc1cc(N2CCC(N(C)C)CC2)c(C)cc1Nc1ncc(C(F)(F)F)c(Nc2ccc3nccnc3c2NS(C)(=O)=O)n1` [Example B9, N-(6-((2-((4-(4-(dimethylamino)piperidin-1-yl)-2-methoxy-5-methylphenyl)amino)-5-(trifluoromethyl)pyrimidin-4-yl)amino)quinoxalin-5-yl) methane sulfonamide] are over 2000 nM, over 2000 nM, over 2000 nM, over 2000 nM and over 2000 nM.
For `COc1cc(N2CCOCC2)c(C)cc1Nc1ncc(Br)c(Nc2ccc3nccnc3c2NS(C)(=O)=O)n1` [Example B10, N-(6-((5-bromo-2-((2-methoxy-5-methyl-4-morpholinophenyl)amino)pyrimidin-4-yl)amino)quinoxalin-5-yl)methanesulfonamide], the GI50 worked out at 584 nM in test [1]; 858 nM at Ba/F3 EGFR Wild-type; 252 nM in test [2]; 537 nM in test [3]; 678 nM in test [4].
Regarding `CC(C)Oc1cc(C2CCNCC2)ccc1Nc1ncc(Cl)c(Nc2ccc3nccnc3c2NS(C)(=O)=O)n1` [Example B22, N-(6-((5-chloro-2-((2-isopropoxy-4-(piperidin-4-yl)phenyl)amino)pyrimidin-4-yl)amino)103quinoxaline-5-yl)methanesulfonamide], the GI50 (in test [1]; at Ba/F3 EGFR Wild-type; in test [2]; in test [4]) was over 2000 nM in each case.
For `CCc1cc(Nc2ncc(F)c(Nc3ccc4nccnc4c3NS(C)(=O)=O)n2)c(OC)cc1N1CCC(N2CCN(C)CC2)CC1` [Example A9, N-(6-((2-((5-ethyl-2-methoxy-4-(4-(4-methylpiperazin-1-yl)piperidin-1-yl)phenyl)amino)-5-fluoropyrimidin-4-yl)amino)quinoxalin-5-yl)methanesulfonamide], the GI50 in test [1] amounted to 80 nM; at Ba/F3 EGFR Wild-type, 524 nM; in test [2], 62 nM; in test [3] it was 15 nM; in test [4] it was 106 nM.
In the case of `COc1cc(N2CCC(N3CCN(C)CC3)CC2)ccc1Nc1ncc(Cl)c(Nc2ccc3nccnc3c2NS(C)(=O)=O)n1` [Example A3, N-(6-((5-chloro-2-((2-methoxy-4-(4-(4-methylpiperazin-1-yl)piperidin-1-yl)phenyl)amino)pyrimidin-4-yl)amino)quinoxalin-5-yl)methanesulfonamide], the GI50 in test [1] was found to be 97.6 nM; in test [2], 48 nM.
On to `CNc1cc(N2CCC(N3CCN(C)CC3)CC2)c(C)cc1Nc1ncc(Cl)c(Nc2ccc3nccnc3c2NS(C)(=O)=O)n1` [Example A13, N-(6-((5-chloro-2-((5-methyl-2-(methylamino)-4-(4-(4-methylpiperazin-1-yl)piperidin-1-yl)phenyl)amino)pyrimidin-4-yl)amino)quinoxalin-5-yl)methanesulfonamide], for which the GI50 in test [1] was 338 nM; at Ba/F3 EGFR Wild-type, over 2000 nM; in test [2], 109 nM; in test [3], 265 nM; in test [4], 646 nM.
In the same order, the values of `COc1cc(N2CCC(N3CCN(C)CC3)CC2)c(C2CC2)cc1Nc1ncc(Cl)c(Nc2ccc3nccnc3c2NS(C)(=O)=O)n1` [Example A5, N-(6-((5-chloro-2-((5-cyclopropyl-2-methoxy-4-(4-(4-methylpiperazin-1-yl)piperidin-1-yl)phenyl)amino)pyrimidin-4-yl)amino)quinoxalin-5-yl)methanesulfonamide] are 69 nM, 938 nM, 23 nM, 76 nM and 244 nM.
The like results for `CCc1cc(Nc2ncc(Br)c(Nc3ccc4nccnc4c3NS(C)(=O)=O)n2)c(OC)cc1N1CCC(N2CCN(C)CC2)CC1` [Example A8, N-(6-((5-bromo-2-((5-ethyl-2-methoxy-4-(4-(4-methylpiperazin-1-yl)piperidin-1-yl)phenyl)amino)pyrimidin-4-yl)amino)quinoxalin-5-yl)methanesulfonamide] were, in that order, 18 nM, 919 nM, 6 nM, 38 nM and 147 nM.
The like results for `COc1cc(N2CCC(N3CCN(C)CC3)CC2)c(C)cc1Nc1ncc(F)c(Nc2ccc3nccnc3c2NS(C)(=O)=O)n1` [Example A22, N-(6-((5-fluoro-2-((2-methoxy-5-methyl-4-(4-(4-methylpiperazin-1-yl)piperidin-1-yl)phenyl)amino)pyrimidin-4-yl)amino)quinoxalin-5-yl)methanesulfonamide] were, in that order, 369 nM, 521 nM, 189 nM, 73 nM and 189 nM.
Turning to `COc1cc(C2CCNCC2)ccc1Nc1ncc(F)c(Nc2ccc3nccnc3c2NS(C)(=O)=O)n1` [Example B17, N-(6-((5-fluoro-2-((2-methoxy-4-(piperidin-4-yl)phenyl)amino)pyrimidin-4-yl)amino)quinoxalin-5-yl)methanesulfonamide], the GI50 was over 2000 nM in test [1]; over 2000 nM on Ba/F3 EGFR Wild-type; over 2000 nM in test [2]; 1250 nM in test [3]; over 2000 nM in test [4].
For the molecule `COc1cc(N2CCC(N(C)C)CC2)c(C)cc1Nc1ncc(Cl)c(Nc2ccc3nccnc3c2NS(C)(=O)=O)n1` [Example B4, N-(6-((5-chloro-2-((4-(4-(dimethylamino)piperidin-1-yl)-2-methoxy-5-methylphenyl)amino)pyrimidin-4-yl)amino)quinoxalin-5-yl)methanesulfonamide], the GI50 in test [1] is 9 nM; on Ba/F3 EGFR Wild-type, 10 nM; in test [2], 4 nM; in test [3], 9 nM; in test [4] it was 14 nM.
For `COc1cc(N2CCC(N3CCN(C)CC3)CC2)c(C(F)(F)F)cc1Nc1ncc(Cl)c(Nc2ccc3nccnc3c2NS(C)(=O)=O)n1` [Example A7, N-(6-((5-chloro-2-((2-methoxy-4-(4-(4-methylpiperazin-1-yl)piperidin-1-yl)-5-(trifluoromethyl)phenyl)amino)pyrimidin-4-yl)amino)quinoxalin-5-yl)methanesulfonamide], the GI50 in test [1] worked out at 169 nM; on Ba/F3 EGFR Wild-type, 602 nM; in test [2] it was 36 nM; in test [3], 96 nM; in test [4] it was 246 nM.
The like results for `COc1cc(N2CCC(N(C)C)CC2)ccc1Nc1ncc(Br)c(Nc2ccc3nccnc3c2NS(C)(=O)=O)n1` [Example B3, N-(6-((5-bromo-2-((4-(4-(dimethylamino)piperidin-1-yl)-2-methoxyphenyl)amino)pyrimidin-4-yl)amino)quinoxalin-5-yl)methanesulfonamide] were, in that order, 86 nM, 725 nM, 30 nM, 147 nM and 325 nM.
Regarding `COc1cc(N2CCC(N3CCN(C)CC3)CC2)c(C)cc1Nc1ncc(C(F)(F)F)c(Nc2ccc3nccnc3c2NS(C)(=O)=O)n1` [Example A20, N-(6-((2-((2-methoxy-5-methyl-4-(4-(4-methylpiperazin-1-yl)piperidin-1-yl)phenyl)amino)-5-(trifluoromethyl)pyrimidin-4-yl)amino)quinoxalin-5-yl)methane sulfonamide], the GI50 in test [1] is over 2000 nM; on Ba/F3 EGFR Wild-type it was over 2000 nM; in test [2] it was 1590 nM; in test [3], over 2000 nM; in test [4], over 2000 nM.
